System: S180 tumor cells (mouse sarcoma)
Conditions: mice sarcoma S180, stomach lavage, 0.3 ml/10 g body weight/day×10
From the text: The mice inoculated by S180 tumor cells (mouse sarcoma) were used as model animals.
In the meantime, non-inoculated mice were feed and used as the native control group.

O=P1(N(CCCl)CCCl)NCCCO1 (centres unmarked) [cyclophosphamide]
Mice body (GPT): 39.2 ± 5.69
Weight of Tumor (g) (X ± SD): 0.614 ± 0.268 g

Reference: US9901602B2, “Ejaculum of animals as medicinal material and uses thereof in medicaments for treatment of diseases such as tumors, depression, etc” (Hui CHENG, priority 2008, dated 2018)
